Source: ChEMBL document CHEMBL1201861, “Genomics of Drug Sensitity in Cancer screening data, Wellcome Trust Sanger Institute”
pIC50: −log10 of the molar value. “And” between values parts separate entries of the source, which are not always exact repeats. Identical values can stand only once. Where a SMILES comes first, the peptide text is derived from it. The star is where a group is joined. Cbz = O=C(OCc1ccccc1)*

Columns and labels:
Experiment in all cases: cells
EW-3 = assay type: functional, cell-based, Homo sapiens;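 further: cell viability assay read-out, IC50 reflects inhibition of growth of the EW-3 cells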
Description: SANGER: Inhibition of human EW-3 cell growth in a cell viability assay.

KLE = assay type: functional, cell-based; conditions: Homo sapiens;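 further: growth inhibition of human KLE cells, read out with a cell viability assay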
Description: SANGER: Inhibition of human KLE cell growth in a cell viability assay.

LS-123 = assay type: functional, cell-based, Homo sapiens
Description: SANGER: Inhibition of human LS-123 cell growth in a cell viability assay.

PSN1 = assay type: functional, cell-based, Homo sapiens;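 further: suppression of growth of human PSN1 cells, read out by a cell viability assay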
Description: SANGER: Inhibition of human PSN1 cell growth in a cell viability assay.

MFM-223 = assay type: functional, cell-based, Homo sapiens
Description: SANGER: Inhibition of human MFM-223 cell growth in a cell viability assay.

MN-60 = assay type: functional, cell-based, Homo sapiens;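 further: growth inhibition of the MN-60 cell line, determined with a cell viability assay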
Description: SANGER: Inhibition of human MN-60 cell growth in a cell viability assay.

GB-1 = assay type: functional, cell-based, Homo sapiens;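 further: growth of GB-1 cells judged by a viability assay, IC50 marks the concentration inhibiting growth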
Description: SANGER: Inhibition of human GB-1 cell growth in a cell viability assay.

HCC1187 = assay type: functional, cell-based, Homo sapiens;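 further: growth inhibition of HCC1187 cells, read out with a cell viability assay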
Description: SANGER: Inhibition of human HCC1187 cell growth in a cell viability assay.

NCI-H720 = assay type: functional, cell-based, Homo sapiens;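 further: growth inhibition of human NCI-H720 cells determined by a cell viability assay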
Description: SANGER: Inhibition of human NCI-H720 cell growth in a cell viability assay.

IA-LM = assay type: functional, cell-based; conditions: Homo sapiens;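 further: cell viability assay measuring growth inhibition of human IA-LM cells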
Description: SANGER: Inhibition of human IA-LM cell growth in a cell viability assay.

MOLT-16 = assay type: functional, cell-based, Homo sapiens;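 further: growth inhibition of human MOLT-16 cells, read out with a cell viability assay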
Description: SANGER: Inhibition of human MOLT-16 cell growth in a cell viability assay.

KINGS-1 = assay type: functional, cell-based, Homo sapiens;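 further: cell viability assay measuring suppression of KINGS-1 cell growth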
Description: SANGER: Inhibition of human KINGS-1 cell growth in a cell viability assay.

ML-2 = assay type: functional, cell-based, Homo sapiens;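 further: growth inhibition of ML-2 cells, measured with a cell viability readout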
Description: SANGER: Inhibition of human ML-2 cell growth in a cell viability assay.

no-11 = assay type: functional, cell-based, Homo sapiens;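 further: growth inhibition of human NO-11 cells, read out with a cell viability assay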
Description: SANGER: Inhibition of human no-11 cell growth in a cell viability assay.

GAK = assay type: functional, cell-based, Homo sapiens;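 further: cell growth inhibition read out by a cell viability assay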
Description: SANGER: Inhibition of human GAK cell growth in a cell viability assay.

ATN-1 = assay type: functional, cell-based, Homo sapiens;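 further: growth inhibition of human ATN-1 cells, read out with a cell viability assay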
Description: SANGER: Inhibition of human ATN-1 cell growth in a cell viability assay.

RKO = assay type: functional, cell-based, Homo sapiens;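 further: growth inhibition of human RKO cells, read out with a cell viability assay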
Description: SANGER: Inhibition of human RKO cell growth in a cell viability assay.

NCI-H1650 = assay type: functional, cell-based, Homo sapiens;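 further: growth inhibition of human NCI-H1650 cells measured by a cell viability assay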
Description: SANGER: Inhibition of human NCI-H1650 cell growth in a cell viability assay.

CTB-1 = assay type: functional, cell-based, Homo sapiens
Description: SANGER: Inhibition of human CTB-1 cell growth in a cell viability assay.

BB30-HNC = assay type: functional, cell-based, Homo sapiens;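 further: growth inhibition of the cultured cell line, read out by a cell viability assay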
Description: SANGER: Inhibition of human BB30-HNC cell growth in a cell viability assay.

KARPAS-299 = assay type: functional, cell-based, Homo sapiens
Description: SANGER: Inhibition of human KARPAS-299 cell growth in a cell viability assay.

BB49-HNC = assay type: functional, cell-based, Homo sapiens;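 further: cell viability assay read-out, reported as inhibition of BB49-HNC cell growth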
Description: SANGER: Inhibition of human BB49-HNC cell growth in a cell viability assay.

D-502MG = assay type: functional, cell-based, Homo sapiens
Description: SANGER: Inhibition of human D-502MG cell growth in a cell viability assay.

SF-539 = assay type: functional, cell-based, Homo sapiens;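 further: Read-out is a cell viability assay, with IC50 reflecting inhibition of cell growth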
Description: SANGER: Inhibition of human SF539 cell growth in a cell viability assay.

SNB-75 = assay type: functional, cell-based, Homo sapiens;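 further: cell viability assay measuring growth inhibition of human SNB-75 cells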
Description: SANGER: Inhibition of human SNB75 cell growth in a cell viability assay.

BV-173 = assay type: functional, cell-based, Homo sapiens
Description: SANGER: Inhibition of human BV-173 cell growth in a cell viability assay.

697 = assay type: functional, cell-based, Homo sapiens
Description: SANGER: Inhibition of human 697 cell growth in a cell viability assay.

K5 = assay type: functional, cell-based, Homo sapiens
Description: SANGER: Inhibition of human K5 cell growth in a cell viability assay.

U-266 = assay type: functional, cell-based, Homo sapiens
Description: SANGER: Inhibition of human U-266 cell growth in a cell viability assay.

NCI-H1395 = assay type: functional, cell-based, Homo sapiens;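 further: cell viability assay read-out quantifying reduced proliferation of human NCI-H1395 cells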
Description: SANGER: Inhibition of human NCI-H1395 cell growth in a cell viability assay.

ES5 = assay type: functional, cell-based, Homo sapiens;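 further: growth inhibition of human ES5 cells, read out by a cell viability assay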
Description: SANGER: Inhibition of human ES5 cell growth in a cell viability assay.

KE-37 = assay type: functional, cell-based, Homo sapiens;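 further: growth inhibition of KE-37 cells, read out with a cell viability assay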
Description: SANGER: Inhibition of human KE-37 cell growth in a cell viability assay.

OCI-AML2 = assay type: functional, cell-based, Homo sapiens;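 further: growth inhibition of OCI-AML2 cells, read out with a cell viability assay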
Description: SANGER: Inhibition of human OCI-AML2 cell growth in a cell viability assay.

KG-1 = assay type: functional, cell-based, Homo sapiens;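 further: growth inhibition of KG-1 cells, read out by a cell viability assay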
Description: SANGER: Inhibition of human KG-1 cell growth in a cell viability assay.

NB6 = assay type: functional, cell-based, Homo sapiens;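 further: growth inhibition of NB6 cells, read out by a cell viability assay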
Description: SANGER: Inhibition of human NB6 cell growth in a cell viability assay.

NCI-H1092 = assay type: functional, cell-based, Homo sapiens;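 further: cell growth inhibition measured with a cell viability assay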
Description: SANGER: Inhibition of human NCI-H1092 cell growth in a cell viability assay.

NCI-H1581 = assay type: functional, cell-based, Homo sapiens;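 further: cell growth inhibition read out by a viability assay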
Description: SANGER: Inhibition of human NCI-H1581 cell growth in a cell viability assay.

U-87 MG = assay type: functional, cell-based, Homo sapiens, U-87MG ATCC;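 further: growth inhibition of the cells measured with a viability assay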
Description: SANGER: Inhibition of human U-87-MG cell growth in a cell viability assay.

COLO-668 = assay type: functional, cell-based, Homo sapiens
Description: SANGER: Inhibition of human COLO-668 cell growth in a cell viability assay.

IST-MEL1 = assay type: functional, cell-based, Homo sapiens;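 further: growth inhibition of the cell line, read out with a cell viability assay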
Description: SANGER: Inhibition of human IST-MEL1 cell growth in a cell viability assay.

EM-2 = assay type: functional, cell-based, Homo sapiens;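 further: growth inhibition of EM-2 cells, read out with a cell viability assay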
Description: SANGER: Inhibition of human EM-2 cell growth in a cell viability assay.

MOLT-4 = assay type: functional, cell-based, Homo sapiens;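 further: growth inhibition of MOLT-4 cells, determined with a cell viability readout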
Description: SANGER: Inhibition of human MOLT-4 cell growth in a cell viability assay.

VA-ES-BJ = assay type: functional, cell-based, Homo sapiens;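 further: growth inhibition of the VA-ES-BJ cell line, read out by a cell viability assay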
Description: SANGER: Inhibition of human VA-ES-BJ cell growth in a cell viability assay.

TE-10 = assay type: functional, cell-based, Homo sapiens;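 further: growth inhibition of TE-10 cells, measured by a cell viability assay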
Description: SANGER: Inhibition of human TE-10 cell growth in a cell viability assay.

NCI-H2126 = assay type: functional, cell-based, Homo sapiens;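 further: growth inhibition of the cancer cell line, determined with a cell viability readout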
Description: SANGER: Inhibition of human NCI-H2126 cell growth in a cell viability assay.

NOS-1 = assay type: functional, cell-based, Homo sapiens;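 further: growth inhibition of the human NOS-1 cell line, read out with a cell viability assay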
Description: SANGER: Inhibition of human NOS-1 cell growth in a cell viability assay.

NCI-H1770 = assay type: functional, cell-based, Homo sapiens;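 further: growth inhibition of NCI-H1770 cells determined with a viability readout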
Description: SANGER: Inhibition of human NCI-H1770 cell growth in a cell viability assay.

NCI-H526 = assay type: functional, cell-based, Homo sapiens;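 further: growth inhibition of the human NCI-H526 cell line, measured by a cell viability assay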
Description: SANGER: Inhibition of human NCI-H526 cell growth in a cell viability assay.

LB996-RCC = assay type: functional, cell-based, Homo sapiens
Description: SANGER: Inhibition of human LB996-RCC cell growth in a cell viability assay.

GT3TKB = assay type: functional, cell-based, Homo sapiens;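 further: growth inhibition of the cell line, read out with a cell viability assay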
Description: SANGER: Inhibition of human GT3TKB cell growth in a cell viability assay.

SMILES: CCCCCCCCCCCC1=C(O)C(=O)C=C(O)C1=O [EMBELIN]
- pIC50 (EW-3; Homo sapiens, EW-3): < 4.49
- pIC50 (KLE): 4.62
- pIC50 (LS-123; Homo sapiens, LS-123): 5.03
- pIC50 (PSN1; Homo sapiens, PSN1): 5.27
- pIC50 (MFM-223; Homo sapiens, MFM-223): < 4.49
- pIC50 (MN-60; Homo sapiens, MN-60): < 4.49
- pIC50 (GB-1; Homo sapiens, GB-1): 5.28
- pIC50 (HCC1187; Homo sapiens, HCC1187): < 4.49
- pIC50 (NCI-H720; Homo sapiens, NCI-H720): < 4.49
- pIC50 (IA-LM): 5.65
- pIC50 (MOLT-16; Homo sapiens, MOLT-16): 4.92
- pIC50 (KINGS-1; Homo sapiens, KINGS-1): < 4.49
- pIC50 (ML-2; Homo sapiens, ML-2): 4.91
- pIC50 (no-11; Homo sapiens): 5.01
- pIC50 (GAK; Homo sapiens, GAK): 4.93
- pIC50 (ATN-1; Homo sapiens, ATN-1): < 4.49
- pIC50 (RKO; Homo sapiens, RKO): 5.70
- pIC50 (NCI-H1650; Homo sapiens, NCI-H1650): 4.68
- pIC50 (CTB-1; Homo sapiens, CTB-1): 4.55
- pIC50 (BB30-HNC; Homo sapiens, BB30-HNC): 5.30
- pIC50 (KARPAS-299; Homo sapiens, KARPAS-299): < 4.49
- pIC50 (BB49-HNC; Homo sapiens, BB49-HNC): < 4.49
- pIC50 (D-502MG; Homo sapiens, D-502MG): < 4.49
- pIC50 (SF-539; Homo sapiens, SF-539): 4.81
- pIC50 (SNB-75; Homo sapiens, SNB-75): 4.76
- pIC50 (BV-173; Homo sapiens, BV-173): < 4.49
- pIC50 (697; Homo sapiens): < 4.49
- pIC50 (K5; Homo sapiens, K5): < 4.49
- pIC50 (U-266; Homo sapiens, U-266): < 4.49
- pIC50 (NCI-H1395; Homo sapiens, NCI-H1395): < 4.49
- pIC50 (ES5; Homo sapiens, ES5): < 4.49
- pIC50 (KE-37; Homo sapiens, KE-37): 5.46
- pIC50 (OCI-AML2; Homo sapiens, OCI-AML2): 5.03
- pIC50 (KG-1; Homo sapiens, KG-1): < 4.49
- pIC50 (NB6; Homo sapiens, NB6): < 4.49
- pIC50 (NCI-H1092; Homo sapiens, NCI-H1092): < 4.49
- pIC50 (NCI-H1581; Homo sapiens, NCI-H1581): < 4.49
- pIC50 (U-87 MG; Homo sapiens, U-87 MG): < 4.49
- pIC50 (COLO-668; Homo sapiens, COLO-668): < 4.49
- pIC50 (IST-MEL1; Homo sapiens, IST-MEL1): 5.10
- pIC50 (EM-2; Homo sapiens, EM-2): < 4.49
- pIC50 (MOLT-4; Homo sapiens, MOLT-4): 4.97
- pIC50 (VA-ES-BJ; Homo sapiens, VA-ES-BJ): 4.97
- pIC50 (TE-10; Homo sapiens, TE-10): 4.88
- pIC50 (NCI-H2126; Homo sapiens, NCI-H2126): 4.56
- pIC50 (NOS-1; Homo sapiens, NOS-1): 5.33
- pIC50 (NCI-H1770; Homo sapiens, NCI-H1770): < 4.49
- pIC50 (NCI-H526; Homo sapiens, NCI-H526): < 4.49
- pIC50 (LB996-RCC; Homo sapiens, LB996-RCC): 4.85
- pIC50 (GT3TKB; Homo sapiens, GT3TKB): 5.44

SMILES: CC(C)C[C@@H](C=O)NC(=O)[C@H](CC(C)C)NC(=O)[C@H](CC(C)C)NC(=O)OCc1ccccc1 [MG-132] (Cbz-Leu-Leu-Leu-aldehyde)
- pIC50 (EW-3; ew-3): < 6.00
- pIC50 (KLE): 6.50
- pIC50 (LS-123; ls-123): < 6.00
- pIC50 (PSN1; psn1): < 6.00
- pIC50 (MFM-223; mfm-223): < 6.00
- pIC50 (MN-60; Homo sapiens, MN-60): < 6.00
- pIC50 (MN-60; mn-60): < 6.00
- pIC50 (GB-1; gb-1): 6.14 and < 6.00
- pIC50 (HCC1187; hcc1187): < 6.00
- pIC50 (NCI-H720; nci-h720): < 6.00
- pIC50 (IA-LM): < 6.00
- pIC50 (MOLT-16; molt-16): 6.53 and < 6.00
- pIC50 (KINGS-1; kings-1): 6.83 and 6.20
- pIC50 (ML-2; ml-2): 6.93 and 6.32
- pIC50 (no-11): < 6.00
- pIC50 (GAK; gak): 6.69 and < 6.00
- pIC50 (ATN-1; atn-1): < 6.00
- pIC50 (RKO; rko): < 6.00 and 6.03
- pIC50 (NCI-H1650; nci-h1650): < 6.00
- pIC50 (CTB-1; ctb-1): 6.11 and < 6.00
- pIC50 (BB30-HNC; bb30-hnc): < 6.00
- pIC50 (KARPAS-299; karpas-299): < 6.00
- pIC50 (BB49-HNC; bb49-hnc): 6.31 and < 6.00
- pIC50 (D-502MG; d-502mg): < 6.00
- pIC50 (SF-539; sf-539): < 6.00
- pIC50 (SNB-75; snb-75): < 6.00
- pIC50 (BV-173; bv-173): < 6.00
- pIC50 697: < 6.00
- pIC50 (K5; k5): < 6.00
- pIC50 (U-266; u-266): < 6.00
- pIC50 (NCI-H1395; Homo sapiens, NCI-H1395): < 6.00
- pIC50 (NCI-H1395; nci-h1395): < 6.00
- pIC50 (ES5; es5): < 6.00
- pIC50 (KE-37; ke-37): 6.88 and 6.19
- pIC50 (OCI-AML2; oci-aml2): < 6.00
- pIC50 (KG-1; kg-1): < 6.00
- pIC50 (NB6; nb6): < 6.00
- pIC50 (NCI-H1092; nci-h1092): 6.41 and < 6.00
- pIC50 (NCI-H1581; Homo sapiens, NCI-H1581): < 6.00
- pIC50 (NCI-H1581; nci-h1581): < 6.00
- pIC50 (U-87 MG; Homo sapiens, U-87 MG): < 6.00
- pIC50 (U-87 MG; u-87mg atcc): < 6.00
- pIC50 (COLO-668; Homo sapiens, COLO-668): < 6.00
- pIC50 (COLO-668; colo-668): < 6.00
- pIC50 (IST-MEL1; ist-mel1): < 6.00
- pIC50 (EM-2; em-2): < 6.00 and 6.06
- pIC50 (MOLT-4; molt-4): < 6.00
- pIC50 (VA-ES-BJ; va-es-bj): 6.65 and < 6.00
- pIC50 (TE-10; te-10): 6.02 and < 6.00
- pIC50 (NCI-H2126; nci-h2126): 6.20 and < 6.00
- pIC50 (NOS-1; nos-1): < 6.00
- pIC50 (NCI-H1770; nci-h1770): < 6.00
- pIC50 (NCI-H526; nci-h526): < 6.00
- pIC50 (LB996-RCC; lb996-rcc): < 6.00
- pIC50 (GT3TKB; gt3tkb): < 6.00
